Laboratory results published in US9211310B2, “Use of a Chinese medicine composition in preparing medicaments for treating secondary prevention of myocardial infarction” (TASLY PHARMACEUTICAL GROUP CO., LTD, priority 2010, dated 2015).

Test system: patients after acute myocardial infarction
Assay: Life quality, Seattle Angina Questionnaire (SAQ), same clinical trial
Format: in vivo, human
Conditions: PP; 3 months after treatment
Excerpt: 3508 patients who were in accordance with the diagnostic standards of AMI for 28 days to 2 years and differentiated as Qi deficiency and blood stagnation syndrome by TCM were studied. 0.5 g Chinese medicine composition prepared by the method of EXAMPLE 1 (Coded as QSYQ) was administrated half an hour after meal, 3 times per day.
There were 19 questions in the Seattle angina questionnaire (SAQ), including 5 parts: physical limitation (PL), anginal stability (AS), anginal frequency (AF), treatment satisfaction (TS) and disease perception (DP). After being given necessary explanation by doctors, the questions were answered independently by patients.
They included the overall survival time, angina pectoris score, TCM symptom score and life quality score, where angina pectoris score, TCM symptom score and life quality score were evaluated at randomization, in 1st, 3rd, 6th, 9th, 12th month after treatment and 18th month after follow-up.
All evaluation results of SAQ were described during the period of observation, and Wilcoxon rank sum test was used for inter-group comparison.
The evaluation results in the SAQ were depicted in different observations, and inter-group comparison was tested by Wilcoxon Rank-sum test.

Q: What does the source list for `CC(=O)Oc1ccccc1C(=O)O` [Control group, aspirine]?
A: 11th question: Often worried, patients (%): (19.03%); 11th question: Seldom worried, patients (%): (30.12%); SAQ 4th question, 1-2 times per week: % of patients: (17.09%); SAQ 4th question, 1-2 times per week: number of patients: 251; SAQ 4th question, 1-3 times per day: % of patients: (5.31%); SAQ 4th question, 1-3 times per day: number of patients: 78; SAQ 4th question, <1 time per week: % of patients: (10.35%); SAQ 4th question, <1 time per week: number of patients: 152; SAQ 4th question, Not used: % of patients: (56.71%); SAQ 4th question, Not used: number of patients: 833; SAQ 4th question, ≧3 times per week: % of patients: (10.55%); SAQ 4th question, ≧3 times per week: number of patients: 155; SAQ 4th question, ≧4 times per day: % of patients: (0.00%); SAQ 4th question, ≧4 times per day: number of patients: 0; SAQ 5th question, Few: % of patients: (24.57%); SAQ 5th question, Few: number of patients: 361; SAQ 5th question, Mild: % of patients: (26.14%); SAQ 5th question, Mild: number of patients: 384; SAQ 5th question, Moderate: % of patients: (16.13%); SAQ 5th question, Moderate: number of patients: 237; SAQ 5th question, None: % of patients: (27.16%); SAQ 5th question, None: number of patients: 399; SAQ 5th question, Not medicated by doctors: % of patients: (4.56%); SAQ 5th question, Not medicated by doctors: number of patients: 67; SAQ 5th question, Severe: % of patients: (1.43%); SAQ 5th question, Severe: number of patients: 21; SAQ 6th question, Dissatisfied: % of patients: (0.07%); SAQ 6th question, Dissatisfied: number of patients: 1; SAQ 6th question, Highly satisfied: % of patients: (20.04%); SAQ 6th question, Highly satisfied: number of patients: 295; SAQ 6th question, Mostly dissatisfied: % of patients: (2.51%); SAQ 6th question, Mostly dissatisfied: number of patients: 37; SAQ 6th question, Mostly satisfied: % of patients: (51.09%); SAQ 6th question, Mostly satisfied: number of patients: 752; SAQ 6th question, Partly satisfied: % of patients: (26.29%); SAQ 6th question, Partly satisfied: number of patients: 387; SAQ 7th question, Dissatisfied: % of patients: (0.07%); SAQ 7th question, Dissatisfied: number of patients: 1; SAQ 7th question, Highly satisfied: % of patients: (23.06%); SAQ 7th question, Highly satisfied: number of patients: 339; SAQ 7th question, Mostly dissatisfied: % of patients: (1.84%); SAQ 7th question, Mostly dissatisfied: number of patients: 27; SAQ 7th question, Mostly satisfied: % of patients: (53.47%); SAQ 7th question, Mostly satisfied: number of patients: 786; SAQ 7th question, Partly satisfied: % of patients: (21.56%); SAQ 7th question, Partly satisfied: number of patients: 317; SAQ Question 1-1 Mildly limited, number of patients: 22; SAQ Question 1-1 Mildly limited, percent of patients: (1.50%); SAQ Question 1-1 Moderately limited, number of patients: 6; SAQ Question 1-1 Moderately limited, percent of patients: (0.41%); SAQ Question 1-1 Not limited, number of patients: 1381; SAQ Question 1-1 Not limited, percent of patients: (93.95%); SAQ Question 1-1 Other reasons, number of patients: 3; SAQ Question 1-1 Other reasons, percent of patients: (0.20%); SAQ Question 1-1 Severely limited, number of patients: 0; SAQ Question 1-1 Severely limited, percent of patients: (0.00%); SAQ Question 1-1 Slightly limited, number of patients: 58; SAQ Question 1-1 Slightly limited, percent of patients: (3.95%); SAQ Question 1-2 Mildly limited, number of patients: 19; SAQ Question 1-2 Mildly limited, percent of patients: (1.29%); SAQ Question 1-2 Moderately limited, number of patients: 8; SAQ Question 1-2 Moderately limited, percent of patients: (0.54%); SAQ Question 1-2 Not limited, number of patients: 1353; SAQ Question 1-2 Not limited, percent of patients: (92.04%); SAQ Question 1-2 Other reasons, number of patients: 6; SAQ Question 1-2 Other reasons, percent of patients: (0.41%); SAQ Question 1-2 Severely limited, number of patients: 0; SAQ Question 1-2 Severely limited, percent of patients: (0.00%); SAQ Question 1-2 Slightly limited, number of patients: 84; SAQ Question 1-2 Slightly limited, percent of patients: (5.71%); SAQ Question 1-6: Mildly limited, patients (%): (17.92%); SAQ Question 1-6: Moderately limited, patients (%): (13.89%); SAQ Question 1-6: Not limited, patients (%): (30.92%); SAQ Question 1-6: Other reasons, patients (%): (0.96%); SAQ Question 1-6: Severely limited, patients (%): (3.83%); SAQ Question 1-6: Slightly limited, patients (%): (32.49%); SAQ Question 1-7: Mildly limited, patients (%): (23.81%)
